Data: ChEMBL document CHEMBL4420070, “6-6 Fused Bicyclic Heteroaryl Compounds and their Use as LATS Inhibitors” (2018)
Calls of active or inactive are those of the source. The calls are words filed in the database; no cut-off is given here.

Assays:
[1] = Total drug level in cell pellets of human limbal stem cells by LC-MS analysis; format: ADME
[2] = species on record: Oryctolagus cuniculus; experiment: (§1) Induction of tissue regeneration in NZA rabbit with limbal stem cell deficiency transplanted with 10 uM compound treated human limbal stem cells assessed as induction of limbal stem cell population expansion by human mitochondrial protein expression in corneal epithelium of transplanted eyes using compound attached to contact lens using GelMA polymerization and delivered into corneal surface; format: functional, organism-based
[3] = Drug level in post wash cell pellets of human limbal stem cells by LC-MS analysis; format: ADME
[4] = species on record: Oryctolagus cuniculus; experiment: as §1, with “measuring regeneration of keratin-12-positive” for “human mitochondrial protein expression in”, “epithelium” for “epithelium of transplanted eyes”; format: functional, organism-based
[5] = biological target: T1, Serine/threonine-protein kinase LATS (Homo sapiens) (UniProt Q9NRM7+O95835); experiment: Inhibition of LATS in human corneal endothelium cells assessed as induction of cell expansion by measuring Collagen 8a2 protein expression at 10 uM incubated for 10 days by immunohistochemistry
T1 sequence (Q9NRM7 whole entry, looked up, one chain of several): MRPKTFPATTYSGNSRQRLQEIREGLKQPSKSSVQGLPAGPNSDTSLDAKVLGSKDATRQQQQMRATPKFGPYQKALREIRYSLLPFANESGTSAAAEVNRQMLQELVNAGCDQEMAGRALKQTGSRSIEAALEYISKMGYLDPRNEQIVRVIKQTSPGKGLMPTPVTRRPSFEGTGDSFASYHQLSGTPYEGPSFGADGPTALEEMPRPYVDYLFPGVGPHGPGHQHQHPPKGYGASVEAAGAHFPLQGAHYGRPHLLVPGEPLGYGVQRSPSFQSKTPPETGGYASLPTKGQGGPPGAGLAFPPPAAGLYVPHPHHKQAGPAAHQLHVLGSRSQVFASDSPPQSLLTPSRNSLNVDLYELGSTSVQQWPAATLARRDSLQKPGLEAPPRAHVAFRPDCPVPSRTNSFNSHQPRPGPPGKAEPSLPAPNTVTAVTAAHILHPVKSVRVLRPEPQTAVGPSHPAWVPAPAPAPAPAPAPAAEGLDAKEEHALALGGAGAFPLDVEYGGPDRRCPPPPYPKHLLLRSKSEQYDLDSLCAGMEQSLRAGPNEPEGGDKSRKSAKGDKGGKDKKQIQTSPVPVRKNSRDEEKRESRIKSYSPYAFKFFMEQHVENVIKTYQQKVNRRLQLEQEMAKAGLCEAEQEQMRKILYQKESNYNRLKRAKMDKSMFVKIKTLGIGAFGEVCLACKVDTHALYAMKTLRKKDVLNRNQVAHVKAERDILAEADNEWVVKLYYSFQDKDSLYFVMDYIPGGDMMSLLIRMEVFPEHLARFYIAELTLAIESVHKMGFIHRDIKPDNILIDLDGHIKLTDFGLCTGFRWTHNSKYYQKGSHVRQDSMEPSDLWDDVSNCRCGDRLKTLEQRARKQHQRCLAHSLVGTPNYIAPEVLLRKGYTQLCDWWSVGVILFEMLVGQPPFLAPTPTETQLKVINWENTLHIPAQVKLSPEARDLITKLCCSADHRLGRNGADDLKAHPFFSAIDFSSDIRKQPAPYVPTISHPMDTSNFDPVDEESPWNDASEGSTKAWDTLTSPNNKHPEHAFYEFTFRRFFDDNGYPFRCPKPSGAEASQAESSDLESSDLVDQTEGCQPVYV

[6] = biological target: T1, Serine/threonine-protein kinase LATS (Homo sapiens); experiment: Inhibition of LATS in human limbal epithelial cells assessed as reduction in YAP phosphorylation level at 10 uM incubated for 1 hr by Western blot analysis; format: cell-based; details: Epithelial cell
[7] = biological target: T1, Serine/threonine-protein kinase LATS (Homo sapiens); experiment: Inhibition of LATS in human corneal endothelium cells assessed as increase in YAP level at 10 uM incubated for 24 hrs by immunohistochemistry
[8] = biological target: T1, Serine/threonine-protein kinase LATS (Homo sapiens); experiment: Inhibition of LATS in human limbal epithelial cells assessed as induction of limbal stem cell expansion marker expression by measuring ABCG2 protein expression at 10 uM incubated for 8 to 10 days by immunohistochemistry; format: cell-based
[9] = biological target: T1, Serine/threonine-protein kinase LATS (Homo sapiens); experiment: Inhibition of LATS in human corneal endothelium cells assessed as induction of cell expansion by measuring Collagen 8a2 gene expression at 10 uM incubated for 10 days by RT-PCR analysis
[10] = biological target: T1, Serine/threonine-protein kinase LATS (Homo sapiens); experiment: Inhibition of LATS in human limbal epithelial cells assessed as induction of cell differentiation into corneal epithelial cells by measuring keratin-12 expression at 10 uM incubated for 8 to 10 days followed by medium change to DMEM medium without serum and compound for further incubation for 4 to 8 days by confocal microscopy; format: cell-based
[11] = biological target: T1, Serine/threonine-protein kinase LATS (Homo sapiens); experiment: Inhibition of LATS in human corneal endothelium cells assessed as induction of normal corneal endothelial cell morphology at 10 uM incubated for 10 days by immunofluorescence staining based confocal microscopy
[12] = biological target: T1, Serine/threonine-protein kinase LATS (Homo sapiens); experiment: Inhibition of LATS in human limbal epithelial cells assessed as induction of limbal stem cell expansion by measuring p63alpha expression at 10 uM measured after 2 weeks by immunohistochemistry; format: cell-based
[13] = biological target: T1, Serine/threonine-protein kinase LATS (Homo sapiens); experiment: Inhibition of LATS in human corneal endothelium cells assessed as induction of cell expansion by measuring SLC4A11 gene expression at 10 uM incubated for 10 days by RT-PCR analysis
[14] = biological target: T1, Serine/threonine-protein kinase LATS (Homo sapiens); experiment: Inhibition of LATS in human limbal epithelial cells assessed as increase in YAP level at 10 uM incubated for 24 hrs by immunostaining based assay; details: Epithelial cell
[15] = biological target: T1, Serine/threonine-protein kinase LATS (Homo sapiens); experiment: Inhibition of LATS in human corneal endothelium cells assessed as induction of tight junctions formation by measuring ZO1 expression at 10 uM incubated for 10 days by immunofluorescence staining based confocal microscopy
[16] = biological target: T1, Serine/threonine-protein kinase LATS (Homo sapiens); experiment: Inhibition of LATS in human corneal endothelium cells assessed as induction of cell expansion by measuring AQP1 gene expression at 10 uM incubated for 10 days by RT-PCR analysis
[17] = biological target: T1, Serine/threonine-protein kinase LATS (Homo sapiens); experiment: Inhibition of LATS in human limbal epithelial cells assessed as induction of limbal stem cell expansion marker expression by measuring C/EBPdelta protein expression at 10 uM incubated for 8 to 10 days by immunohistochemistry; format: cell-based
[18] = biological target: T1, Serine/threonine-protein kinase LATS (Homo sapiens); experiment: Inhibition of LATS in human corneal endothelium cells assessed as reduction in YAP phosphorylation at 10 uM incubated for 1 hr by Western blot analysis
[19] = biological target: T1, Serine/threonine-protein kinase LATS (Homo sapiens); experiment: Inhibition of LATS in human limbal epithelial cells assessed as induction of limbal stem cell expansion by measuring expansion factor ratio at 10 uM measured after 2 weeks by p63alpha expression detection based immunohistochemistry relative to control; design: scale not given: the % may be the effect or the level left
[20] = biological target: T1, Serine/threonine-protein kinase LATS (Homo sapiens); experiment: Inhibition of LATS in human corneal endothelium cells assessed as induction of cell expansion by measuring cell density at 10 uM by Sytox orange dye based epifluorescence microscopy
[21] = biological target: T1, Serine/threonine-protein kinase LATS (Homo sapiens); experiment: Inhibition of LATS in human corneal endothelium cells assessed as induction of cell proliferation measured every 3 hrs for 10 days
[22] = biological target: T1, Serine/threonine-protein kinase LATS (Homo sapiens); experiment: Inhibition of LATS in human corneal endothelium cells assessed as induction of cell expansion by measuring Na/K ATPase protein expression at 10 uM incubated for 10 days by immunohistochemistry
[23] = biological target: T1, Serine/threonine-protein kinase LATS (Homo sapiens); experiment: Inhibition of LATS in human limbal epithelial cells assessed as induction of limbal stem cell expansion marker expression by measuring deltaN-p63-alphabetagamma protein expression at 10 uM incubated for 8 to 10 days by immunohistochemistry; format: cell-based
[24] = test system: Mus musculus; experiment: Inhibition of LATS in C57BL/6J mouse assessed as change in CTGF mRNA expression level at 30 mg/kg, po administered as single dose measured after 2 hrs by qRT-PCR analysis relative to control; format: functional
[25] = test system: Mus musculus; experiment: Inhibition of LATS in C57BL/6J mouse assessed as change in Cyr61 mRNA expression level at 30 mg/kg, po administered as single dose measured after 2 hrs by qRT-PCR analysis relative to control; format: functional
[26] = test system: Mus musculus; experiment: Inhibition of LATS in C57BL/6J mouse assessed as change in Ki67 protein expression level at 30 mg/kg, po administered as single dose measured after 24 hrs by immunohistochemistry analysis relative to control; format: functional
[27] = test system: Mus musculus; experiment: Induction of basal skin cell proliferation in C57BL/6 mouse at 250 ug administered topically twice per day by micrography; format: functional, organism-based
[28] = test system: Mus musculus; experiment: Induction of epidermal thickness in C57BL/6 mouse at 250 ug administered topically twice per day by micrography; format: functional, organism-based
[29] = test system: Mus musculus; experiment: Inhibition of LATS in C57BL/6 mouse with full-thickness excisional wounds assessed as up-regulation of YAP target gene Cyr61 expression at 0.2 to 2 mg/ml administered topically by RT-PCR analysis; format: functional, organism-based
[30] = biological target: T2, Serine/threonine-protein kinase LATS1 (Homo sapiens, UniProt O95835); experiment: Inhibition of human LATS1 kinase domain (589 to 1130 amino acids) incubated for 30 mins by HTRF assay
T2 sequence (O95835 whole entry): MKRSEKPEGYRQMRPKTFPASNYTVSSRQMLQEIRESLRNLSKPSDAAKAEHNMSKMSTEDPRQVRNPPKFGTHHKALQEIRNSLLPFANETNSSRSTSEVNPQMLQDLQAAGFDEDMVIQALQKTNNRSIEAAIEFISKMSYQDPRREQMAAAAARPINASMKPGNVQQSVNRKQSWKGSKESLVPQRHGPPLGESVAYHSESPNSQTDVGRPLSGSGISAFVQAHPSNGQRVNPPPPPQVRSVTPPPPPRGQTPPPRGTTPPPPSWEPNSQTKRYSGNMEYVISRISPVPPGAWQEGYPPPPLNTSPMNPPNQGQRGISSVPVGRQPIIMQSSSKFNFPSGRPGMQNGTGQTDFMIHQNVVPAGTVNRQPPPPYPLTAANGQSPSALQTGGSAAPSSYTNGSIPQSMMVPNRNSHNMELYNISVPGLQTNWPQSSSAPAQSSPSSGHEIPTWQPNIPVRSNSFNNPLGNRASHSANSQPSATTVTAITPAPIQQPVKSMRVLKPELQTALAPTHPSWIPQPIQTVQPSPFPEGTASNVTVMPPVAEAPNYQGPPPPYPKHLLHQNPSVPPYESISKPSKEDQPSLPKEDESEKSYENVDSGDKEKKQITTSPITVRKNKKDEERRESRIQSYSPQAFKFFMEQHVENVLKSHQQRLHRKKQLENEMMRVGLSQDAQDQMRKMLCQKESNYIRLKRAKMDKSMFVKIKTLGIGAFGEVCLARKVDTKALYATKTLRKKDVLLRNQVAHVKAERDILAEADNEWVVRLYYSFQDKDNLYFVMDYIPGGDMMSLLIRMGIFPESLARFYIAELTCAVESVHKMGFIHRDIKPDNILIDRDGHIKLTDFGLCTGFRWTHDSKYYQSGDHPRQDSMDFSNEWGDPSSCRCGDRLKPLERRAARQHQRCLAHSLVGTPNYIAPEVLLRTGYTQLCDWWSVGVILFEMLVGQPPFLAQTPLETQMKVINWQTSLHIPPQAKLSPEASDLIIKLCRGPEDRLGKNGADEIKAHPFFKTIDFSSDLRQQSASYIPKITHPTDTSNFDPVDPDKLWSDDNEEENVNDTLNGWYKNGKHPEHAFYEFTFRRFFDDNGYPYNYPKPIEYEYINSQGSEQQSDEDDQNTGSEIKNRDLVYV

With `CC(C)(O)COCC(C)(C)Nc1nc(-c2ccncc2)nc2cnccc12` the Drug uptake [1] was 178 pg, the Activity [2] was “Active” and the Drug uptake [3] was 7.32 to 14.4 nM. The Activity [4] was “Active”.
With `CC(C)(O)CC(C)(C)Nc1nc(-c2ccncc2)nc2cnccc12` the inhibition [5] was “Active”, the inhibition [6] was “Active” and the inhibition [7] was “Active”. The inhibition [8] was “Active”, the inhibition [9] was “Active” and the inhibition [10] was “Active”. The inhibition [11] was “Active”, the inhibition [12] was “Active” and the inhibition [13] was “Active”. For the same compound, the inhibition [14] was “Active”, the inhibition [15] was “Active” and the inhibition [16] was “Active”. For the same compound, the inhibition [17] was “Active”, the inhibition [18] was “Active” and the Activity [19] was 57 to 97%. For the same compound, the Activity [20] was 3870 /mm2, the inhibition [21] was “Active” and the inhibition [22] was “Active”. For the same compound, the inhibition [23] was “Active”.
In the case of `CC(C)Nc1nc(-c2ccncc2)nc2cnccc12`, the Activity [19] is reported as 57 to 97% and the Activity [20] is reported as 3380 /mm2.
In the case of `c1cc(-c2nc(NCCCc3nnn[nH]3)c3ccncc3n2)ccn1`, the “fold change (FC)” value [24] is reported as 2.1, the “fold change (FC)” value [25] is reported as 3.5 and the “fold change (FC)” value [26] is reported as 3.3.
In the case of `Cc1n[nH]cc1-c1nc(NC2(C)CC2)c2ccncc2n1`, the inhibition [6] is reported as “Active”, the inhibition [7] is reported as “Active” and the inhibition [8] is reported as “Active”. For the same compound, the Activity [27] was “Active”, the Activity [28] was “Active” and the inhibition [12] was “Active”. The inhibition [14] was “Active”, the inhibition [17] was “Active” and the inhibition [18] was “Active”. The Activity [19] was 57 to 97%, the Activity [20] was 2030 /mm2 and the inhibition [21] was “Active”. For the same compound, the inhibition [29] was “Dose-dependent effect” and the inhibition [23] was “Active”.
For `FC(F)(F)C1(Nc2nc(-c3ccncc3)cc3cnccc23)CC1`, the Activity [19] was 57 to 97% and the Activity [20] was 2780 /mm2.
For `CCCNc1nc(-c2ccncc2)nc2cnccc12`, the Activity [19] was 57 to 97% and the Activity [20] was 3270 /mm2.
With `CC(C)(CO)Nc1nc(-c2ccncc2)nc2cnccc12` the Activity [19] was 57 to 97% and the Activity [20] was 2500 /mm2.
With `O[C@H]1CCC[C@@H]1Nc1nc(-c2ccncc2)nc2cnccc12` the Activity [19] was 57 to 97% and the Activity [20] was 25 /mm2.
For `CC(C)N(C)c1nc(-c2ccncc2)nc2cnccc12`, the Drug uptake [1] was 415 pg, the Drug uptake [3] was 13.5 to 46.5 nM and the Activity [20] was 3910 /mm2.
Work on `O=C(O)CCCNc1nc(-c2ccncc2)nc2cnccc12` yielded an IC50 [30] greater than 2500 nM.
With `CC1CCCC1Nc1nc(-c2ccncc2)nc2cnccc12` (stereo unspecified) the Activity [19] was 57 to 97% and the Activity [20] was 1630 /mm2.
